Data on one molecule can be found in patent publication US6410545B1, “Lipid lowering quinazoline dietary supplement composition” (Parker Hughes Institute, priority 1998, dated 2002).

SMILES strings stand for the structures. “And” between values parts separate entries of the source, which are not always exact repeats. Equal entries are not always repeated.

What all share (format): in vivo
The subject of series [1] is hypercholesterolemic C57B⅙ mice. Nature of the series: Serum total cholesterol in hypercholesterolemic C57B⅙ mice on Paigen's cocoa butter diet. To be noted: 1.6 mg/kg/day. As for the experimental part:
Three- to four-week old C57B⅙ male mice (Taconic, Germantown, N.Y., USA) were kept in micro-isolator cages on a 12-hour day/night cycle and fed the Paigen's cocoa butter diet (15.8% fat, 1.25% cholesterol, and 0.5% sodium cholate) (Harlan Teklad, Madison, Wis., USA) for two weeks prior to initiation of lipid lowering therapy. Paigen's diet is described in Nishina et.al., 1993, J. Lipid Res. 34: 1413-1422.
(§1) Animals were treated with test compounds by intraperitoneal injection daily for 7 days. A range of doses was administered. Control animals received vehicle alone. The effect of quinazoline derivatives on total cholesterol, LDL, HDL, liver enzymes, and glucose was analyzed. The mice tissues were also examined histologically.
(§2) Serum total cholesterol was measured enzymatically using the cholesterol kit from Sigma Chemical Co. (St. Louis, Mo., USA). For liver tissue lipid measurements, lipids were extracted from homogenized hepatic tissues using the method of Bligh and Dyer (Bligh, et al., Can. J. Biochem. Phys. 1959, 37:911-917). One gram of liver tissue was homogenized in 1 ml of distilled water and extracted with 4 ml of chloroform/methanol (1:1, v/v). The chloroform phase containing the lipids was evaporated under a stream of nitrogen, the lipids dissolved in 100 μL of isopropanol, and subjected to cholesterol determination as described above. Triglyceride (TG) contents were determined using the TG kit from Sigma Chemical Co.
A high cholesterol and high fat diet was used to induce hypercholesterolemia in C57B⅙mice, using the methods described by Paigen, et al. (Nishina, et al., 1993, J. Lipid Res. 34:1413-1422) and as described for Example 1.

In series [2] the test system is apo e−/− mice. The experiment in a line: Blood chemistry and histopathology of treated apo e−/− mice. To be noted: 8 mg/kg/day or 40 mg/kg/day. As for the experimental part: as §1
Serum levels alanine aminotransferase (ALT), alkaline phosphatase (ALP), lactate dehydrogenase (LDH), blood urea nitrogen (BUN), creatinine, creatinine phosphokinase (CPK), and glucose were determined by using a Synchron CX5 Clinical System (Beckman Instruments, Inc., Fullerton, Calif.) following manufacturer's instructions. For the glucose tolerance test, blood glucose levels were determined using the portable One Touch Profile glucose meter (Lifescan, Milpitas, Calif., USA).
(§3) At the end of the experiment, the animals were sacrificed and the harvested tissues were fixed in 10% phosphate buffered formalin overnight, embedded, sectioned, and stained by hematoxylin and eosin (H&E). The stained sections were examined for pathological changes. For Oil Red O staining, the liver was excised and snap frozen in liquid nitrogen. Five micrometer thick sections were obtained using the LeicaCM1800 cryostat (Heerbrugg, Switzerland), stained in 0.5% Oil Red O in propylene glycol for 1 hour, destained in 85% propylene glycol for 1 minute, rinsed twice in distilled water, counterstained in Mayer's hematoxylin for a few seconds, rinsed twice in distilled water, and mounted in Crystalmount (Biomedia Corp., Foster City, Calif.). The Oil Red O stainable material at 400 X magnification was quantitated using the ImagePro plus program (Media Cybernetics, Silver Spring, Md., USA) in conjunction with a 3CCD camera (DAGE-MTI Inc., Michigan City, USA).

The test system of series [3] is apo e−/− mice. Nature of the series: Hepatic and plasma lipids (Oil Red O staining, tissue lipid extraction) in apo e−/− mice on Western diet. To be noted: 40 mg/kg/day for 1 week. The procedure:
as §2, §3
apo e^−/− mice accumulate large amounts of TG-rich lipid droplets in their livers, due a blocked VLDL-TG secretion (Kuipers et al., 1997, J. Clin. Invest. 100:2915-2922). […] When tissue lipids were measured, there was a 22% reduction in hepatic cholesterol 39% reduction in hepatic triglycerides.

For series [4], the system named is apo e−/− mice. The experiment in a line: Regression of pre-existing atherosclerotic lesions (Sudan IV stained aortas) in apo e−/− mice. The note with it: apo e−/− mice 7 months on Western diet, 40mg/kg/day for one month. The source says: Aortas from untreated (FIG. 6A), vehicle treated (FIG. 6B), and WHI-P164 treated (FIG. 6C) animals were stained with Sudan IV to show the fatty streaks. Aortas of untreated control mice were obtained at 7 months to reflect the pretreatment condition of the test groups. Aortas of vehichle treated or WHI-P164 treated test mice were obtained at 8 months following a one month treatment program. Statistical comparisons indicate **p=0.002 for untreated controls versus WHI-P164 treated test mice and p=0.007 for vehicle controls versus WHI-P164 treated mice.
The effectiveness of WHI-P164 against pre-existing atherosclerotic lesions in apo e^−/− mice kept 7 months on high fat Western diet was examined. apo e^−/− mice were treated with either vehicle control or WHI-P164 at 40mg/kg/day for one month. […] Treatment with WHI-P164 caused a marked regression of the atherosclerotic lesions with fatty streaks covering only 23±2% (n=7) of the aortic surface (FIG. 6B), as compared to 40±5% in untreated mice (n=3) (FIG. 6A) (p=0.002) and 40±5% in the vehicle-treated mice (n=8) (FIG. 6C) (p=0.007).

With `COc1cc2ncnc(C(=O)c3cccc(Br)c3)c2cc1OC` [WHI-P164, 4-(3′-bromobenzoyl)-6,7-dimethoxyquinazoline], the Serum total cholesterol in series [1] (apo e+/+ C57B1/6 mice, cocoa butter diet two weeks, then drug 1 week at 1.6 mg/kg/day i.p.) is 348.6 ± 27.6 mg/dL and 349 ± 28 mg/dL. Further, in series [1] (hypercholesterolemic C57B⅙ mice, one week, versus untreated), the “Reduction in mean serum total cholesterol” value amounted to 23%. For the same molecule, in the series on apo e−/− mice [2], the “Clinical or laboratory signs of toxicity” value is “not associated with any obvious clinical or laboratory signs of toxicity”; the “Histopathologic examination of tissues” value is “did not reveal any drug related toxic lesions”; the “Liver enzymes (ALT, AST, ALP, LDH), CPK levels, and BUN/Creatinine” value is given as “remained within normal limits”. Further, in the series with apo e−/− mice [3], the “Oil Red O stainable lipid material in liver” value came to 658±256 red pixels/field, the hepatic cholesterol amounted to 51.4 ± 4.4 mg/g wet wt, the hepatic triglycerides is listed as 211.6 ± 27 mg/g wet wt and the “plasma FFA” value stood at 3.6 ± 0.3 mM. Further, the “plasma TG” value in the series on apo e−/− mice [3] was found to be 165 ± 19 mg/dL. Further, in the series with apo e−/− mice [3] (versus vehicle), the “Reduction in hepatic cholesterol” value stood at 22%, the “Reduction in hepatic triglycerides” value worked out at 39% and the “Reduction of liver lipid material (image analysis)” value is 75%. Further, the “Aortic surface covered by fatty streaks stainable by Sudan IV” value in the series with apo e−/− mice [4] was determined as 23±2%.
